Non-standard residues stand in square brackets, D forms with d. Residues, ends and D or L forms follow the SMILES beside them.
What was measured:
C57Bl/6J mice [1] = settings: kaïnate 25 mg/kg i.p.
Protocol: Kaïnate solutions were prepared in a solution of 140 mM NaCl (saline solution).
Mice (n = 10 per group) were monitored during 2 h for onset and extent of seizures. Six levels of seizure severity were defined: (1) immobility, (2) head/neck movements, (3) clonic unilateral activity, (4) clonic bilateral activity, (5) generalized convulsions, and (6) death. Seizure severity was blindly scored (Tsirka et al. [1995]). The seizure index was calculated by averaging the points for seizure activity in each group (n = 10 per treatment).

human TREK-1 channel [2] = target: T1, human TREK-1 channel (Homo sapiens, UniProt O95069); assay: cell-based
Protocol: (§1) The human-TREK-1/HEK293 cell line (h-TREK-1/HEK) (Moha ou Maati et al. [2011a]) and HEK-IKS cell line (Ducroq et al. [2010]) were grown in the presence of 0.5 mg/mL G418 in Dulbecco’s modified Eagle’s medium supplemented with 10 % (v/v) heat-inactivated fetal bovine serum containing 1 % (v/v) penicillin/streptomycin in an atmosphere of 95 % air/5 % CO2 as previously described (Moha ou Maati et al. [2011a]).
(§2) All electrophysiological experiments were performed on h-TREK-1/HEK cells seeded at a density of 20,000 cells/35 mm dish after 2–6 days of culture. All electrophysiological recordings were performed in whole cell configuration of the patch clamp technique except for IKS measures which were obtained by using the patch clamp perforated configuration (amphotericin B 0.9 mg/mL in the pipette medium) (Moha ou Maati et al. [2011b]). Each current was evaluated by using a RK 400 patch clamp amplifier (Axon Instrument, USA), low-pass filtered at 3 kHz, and digitized at 10 kHz using a 12-bit analog-to-digital converter digidata (1322 series, Axon Instrument, USA). All current amplitudes are expressed in current densities. Results are expressed as mean ± standard error of the mean (SEM). […] The bath solution contained (in mM) 150 NaCl, 5 KCl, 3 MgCl2, 1 CaCl2, and 10 4-(2-hydroxyethyl)piperazine 1- ethane sulfonic acid (HEPES) adjusted to pH 7.4 with NaOH. The pipette solution contained (in mM) 155 KCl, 3 MgCl2, 5 EGTA, and 10 HEPES adjusted to pH 7.2 with KOH. TREK-1 currents were evaluated at room temperature (21–22 °C) in the presence of a cocktail of potassium channel inhibitors (K^+ blockers, 3 mM 4-aminopyridine (4-AP), 10 mM tetraethylammonium (TEA), 10 μM glibenclamide, 100 nM apamin, and 50 nM charybdotoxin). Stimulation protocols and data acquisition were carried out using a microcomputer (Dell Pentium) with a commercial software and hardware (pClamp 8.2). Currents were recorded by voltage clamp steps to membrane potentials of −100 to +60 mV in 20-mV steps applied from a holding potential of −80 mV. The duration of depolarization pulses was 825 ms, and the pulse cycling rate was 5 s. TREK-1 current amplitudes were evaluated at the end of stimulation pulses. Cells were continuously superfused with microperfusion system.
(§3) All experiments were performed on h-TREK-1/HEK cell line in the presence of a mixture of K^+ channels blockers and by using the whole cell configuration of the patch clamp technique. a Control currents (black-filled circles, K^+ blockers) were amplified by the application of 10 μM of arachidonic acid (white-filled circles, K^+ blockers + AA).

human TREK-1 channel [3] = target: T1, human TREK-1 channel; settings: h-TREK-1/HEK cells, current at 0 mV, n = 10 to 12
Protocol: as §1, §2, §3

C57Bl/6J mice [4] = settings: water bath 48 °C, 10 μg/kg i.v. 30 min before the test, n = 10 per group, two determinations averaged, mean ± SEM; saline 12.75 ± 0.96 s
Protocol: The tail was immersed in a water bath at 48 °C until withdrawal was observed (cutoff time 30 s). Two separate withdrawal latency time determinations were averaged (Alloui et al. [2006]).
For each mouse, the time to withdraw its tail immersed in a water bath at 48 °C was measured twice and averaged.

C57Bl/6J mice [5] = settings: 10 μg/kg i.v. once a day for 4 days, test on day 5, mean ± SEM; saline 305.00 ± 62.47 s
Protocol: Naïve male C57Bl/6J mice from 7 to 9 weeks old were used in all experiments (Janvier Laboratory, Saint Berthevin, France). Mice were housed (10 animals per cage) under a 12:12 light–dark cycle (light on at 8:00 am) in a ventilated room at a temperature of 22 ± 1 °C. Animals had free access to water and food (A03; SAFE, Augy, France).
(§4) For acute treatment, drugs were administered in a single 100-μL bolus 30 min prior to the beginning of the behavioral tests. For subchronic treatment, drugs were injected during four consecutive days, and behavioral tests were performed on day 5, without additional injection.
The NSF paradigm is a 2-day test protocol. On day 1, mice were deprived from food. On day 2, mice were placed in a highly brightly lit area, in a plastic box (45 × 45 × 20 cm), with a floor covered with wooden bedding. The test was carried out during a 10-min period. During this time, the latency to eat was measured. During the test, a single pellet of food was placed in the center of the box, on a white platform.

hERG channel (IKR) = hERG channel (IKR) (Homo sapiens, UniProt Q12809); settings: 10 μM
Protocol: HEK-293 native cells were grown in serum in an atmosphere of 95 % air/5 % CO2 in Dulbecco’s modified Eagle’s medium supplemented with 10 % (v/v) heat-inactivated fetal bovine containing 1 % (v/v) of penicillin/ streptomycin and Glutamax X 1. Cells were plated at a density of 20,000 cells/35 mm dish, and after 24 h, cells were transfected using the Jet PEI method (Polyplus, France) with 25 ng/35 mm dish of p-IRES-HERG channel vector. Patch clamp experiments were carried out 48 h after transfection.
All electrophysiological recordings were performed in whole cell configuration of the patch clamp technique except for IKS measures which were obtained by using the patch clamp perforated configuration (amphotericin B 0.9 mg/mL in the pipette medium) (Moha ou Maati et al. [2011b]). Each current was evaluated by using a RK 400 patch clamp amplifier (Axon Instrument, USA), low-pass filtered at 3 kHz, and digitized at 10 kHz using a 12-bit analog-to-digital converter digidata (1322 series, Axon Instrument, USA). All current amplitudes are expressed in current densities. Results are expressed as mean ± standard error of the mean (SEM). […] The bath solution contained (in mM) 150 NaCl, 5 KCl, 3 MgCl2, 1 CaCl2, and 10 4-(2-hydroxyethyl)piperazine 1- ethane sulfonic acid (HEPES) adjusted to pH 7.4 with NaOH. The pipette solution contained (in mM) 155 KCl, 3 MgCl2, 5 EGTA, and 10 HEPES adjusted to pH 7.2 with KOH. […] Stimulation protocols and data acquisition were carried out using a microcomputer (Dell Pentium) with a commercial software and hardware (pClamp 8.2). Currents were recorded by voltage clamp steps to membrane potentials of −100 to +60 mV in 20-mV steps applied from a holding potential of −80 mV. The duration of depolarization pulses was 825 ms, and the pulse cycling rate was 5 s. […] Cells were continuously superfused with microperfusion system.
Tail currents were generated by repolarization to −40 mV. […] The amplitudes of IKS and IKR currents were calculated at both the end of the first pulse and the peak of the tail pulse.

C57Bl/6J mice [6] = settings: 10^-5 M in 100 μL bolus i.v. 30 min before the test, monitored 24 h, n = 8 per group
Protocol: Locomotor activity was monitored individually for 24 h using an infrared photobeam activity monitoring system (Imetronic, Pessac, France), which measured consecutive horizontal beam breaks. […] Locomotor activity was defined as breaking of consecutive photobeams. Movements were recorded and totalized for each 10-min time section. Six periods were pooled to obtain data for 1 h of time. Different movements were monitored: the coming-and-going between the back and the front of the cage, climbing, and other movements in the back or the front of the cage. Mice were kept under standard laboratory conditions: 12:12 light–dark cycle with free access to food and water during the experiment.
Mice were injected 30 min before to be placed in an infrared photobeam activity monitoring system. Spontaneous locomotor activity was monitored individually for 24 consecutive hours. The number of coming-and-going (a), climbing (b), and total movements except climbing (c) were monitored for each mouse for 10 min section and pooled by 6 to obtain values corresponding to 1 h.

C57Bl/6J mice [7] = settings: for FST immobility time, subchronic treatment: 10 μg/kg i.v. once a day for 4 days, test on day 5, mean ± SEM, saline 161.80 ± 8.12 s; for FST immobility time, acute treatment: 10 μg/kg single i.v. bolus, 30 min before the test, saline 166.13 ± 5.54 s; for FST immobility time, acute treatment / FST immobility time 1 h after injection (action duration): n = 10, mean ± SEM; for FST immobility time 1 h after injection (action duration): naïve mice at each time; for FST immobility time 1 h after injection (action duration) / FST immobility time 16 h after injection (action duration): saline 170.3 ± 4.5 s (spadin series), 162.7 ± 4.7 s (analog series); for FST immobility time 16 h after injection (action duration): naïve mice, mean ± SEM
Protocol: Naïve male C57Bl/6J mice from 7 to 9 weeks old were used in all experiments (Janvier Laboratory, Saint Berthevin, France). Mice were housed (10 animals per cage) under a 12:12 light–dark cycle (light on at 8:00 am) in a ventilated room at a temperature of 22 ± 1 °C. Animals had free access to water and food (A03; SAFE, Augy, France). All experiments were conducted according to policies on the care and use of laboratory animals of the Society for Neuroscience and also with respect to national laws on animal use.
as §4
The animals were individually placed in a non-escapable cylinder (height 30 cm, diameter 15 cm) filled with 15-cm water at 22 ± 1 °C. The trial was conducted for 6 min. The total period of immobility was manually measured during the last 4 min of the test. A mouse was considered immobile when it remained floating with only slight movements to keep its head above water.

human-IKS current = human-IKS current (Homo sapiens, UniProt P51787); settings: 10 μM
Protocol: as §1
All electrophysiological recordings were performed in whole cell configuration of the patch clamp technique except for IKS measures which were obtained by using the patch clamp perforated configuration (amphotericin B 0.9 mg/mL in the pipette medium) (Moha ou Maati et al. [2011b]). Each current was evaluated by using a RK 400 patch clamp amplifier (Axon Instrument, USA), low-pass filtered at 3 kHz, and digitized at 10 kHz using a 12-bit analog-to-digital converter digidata (1322 series, Axon Instrument, USA). All current amplitudes are expressed in current densities. Results are expressed as mean ± standard error of the mean (SEM). […] The bath solution contained (in mM) 150 NaCl, 5 KCl, 3 MgCl2, 1 CaCl2, and 10 4-(2-hydroxyethyl)piperazine 1- ethane sulfonic acid (HEPES) adjusted to pH 7.4 with NaOH. The pipette solution contained (in mM) 155 KCl, 3 MgCl2, 5 EGTA, and 10 HEPES adjusted to pH 7.2 with KOH. […] Stimulation protocols and data acquisition were carried out using a microcomputer (Dell Pentium) with a commercial software and hardware (pClamp 8.2). […] Cells were continuously superfused with microperfusion system.
IKS currents were activated by voltage clamp steps of membrane potentials from −100 to +100 mV in 20-mV steps applied from a holding potential of −80 mV. Tail currents were generated by repolarization to −40 mV. Duration of both depolarization and repolarization pulses was 2.4 s, and the pulse cycling rate was 10 s. […] The amplitudes of IKS and IKR currents were calculated at both the end of the first pulse and the peak of the tail pulse.

C57Bl/6J mice [8] = settings: 10 μg/kg i.v. for four consecutive days, hippocampal dentate gyrus
Protocol: One day after 5-bromo-2′-deoxyuridine (BrdU) injections, 12 mg per animal divided in four bolus of 300 μL injected every 2 h, mice were anesthetized with isoflurane and transcardially perfused with 20 mL of NaCl 0.9 % followed by 20 mL paraformaldehyde 4 %/NaCl 0.9 %. By using a vibratome (Leica), brains were cut into 40-μm sections, throughout the entire hippocampus. […] For each BrdU labeling, slices were first incubated with a mouse monoclonal anti-BrdU antibody (1/8,000, Becton Dickinson). For chromogenic immunodetection, sections were incubated during 2 h in biotin-conjugated species-specific secondary antibodies (1/400; Vector laboratories) followed by a peroxidase-avidin complex solution, to amplify the reaction. The peroxidase activity of immune complex was visualized with DAB staining using the VectaStain ABC kit according to the manufacturer’s protocol (Vector Laboratories).

human-IKS current, sequence (P51787 whole entry): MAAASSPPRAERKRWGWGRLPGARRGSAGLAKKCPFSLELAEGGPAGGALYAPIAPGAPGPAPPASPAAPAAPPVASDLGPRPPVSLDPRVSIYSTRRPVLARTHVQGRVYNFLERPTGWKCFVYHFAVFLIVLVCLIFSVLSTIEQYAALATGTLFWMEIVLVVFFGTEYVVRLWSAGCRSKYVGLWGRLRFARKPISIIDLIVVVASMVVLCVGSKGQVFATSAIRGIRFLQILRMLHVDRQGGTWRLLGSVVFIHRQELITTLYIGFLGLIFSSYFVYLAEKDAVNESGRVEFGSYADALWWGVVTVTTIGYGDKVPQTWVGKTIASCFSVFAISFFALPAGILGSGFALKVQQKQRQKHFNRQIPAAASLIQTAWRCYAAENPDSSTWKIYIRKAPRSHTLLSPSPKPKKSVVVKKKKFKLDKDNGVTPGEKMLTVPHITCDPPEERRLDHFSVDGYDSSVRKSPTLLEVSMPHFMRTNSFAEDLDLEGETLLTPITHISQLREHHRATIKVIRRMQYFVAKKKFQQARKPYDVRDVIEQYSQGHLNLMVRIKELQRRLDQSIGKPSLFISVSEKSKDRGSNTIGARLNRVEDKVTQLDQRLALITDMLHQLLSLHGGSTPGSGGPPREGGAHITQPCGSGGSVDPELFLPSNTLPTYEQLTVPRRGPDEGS
hERG channel (IKR), sequence (Q12809 whole entry): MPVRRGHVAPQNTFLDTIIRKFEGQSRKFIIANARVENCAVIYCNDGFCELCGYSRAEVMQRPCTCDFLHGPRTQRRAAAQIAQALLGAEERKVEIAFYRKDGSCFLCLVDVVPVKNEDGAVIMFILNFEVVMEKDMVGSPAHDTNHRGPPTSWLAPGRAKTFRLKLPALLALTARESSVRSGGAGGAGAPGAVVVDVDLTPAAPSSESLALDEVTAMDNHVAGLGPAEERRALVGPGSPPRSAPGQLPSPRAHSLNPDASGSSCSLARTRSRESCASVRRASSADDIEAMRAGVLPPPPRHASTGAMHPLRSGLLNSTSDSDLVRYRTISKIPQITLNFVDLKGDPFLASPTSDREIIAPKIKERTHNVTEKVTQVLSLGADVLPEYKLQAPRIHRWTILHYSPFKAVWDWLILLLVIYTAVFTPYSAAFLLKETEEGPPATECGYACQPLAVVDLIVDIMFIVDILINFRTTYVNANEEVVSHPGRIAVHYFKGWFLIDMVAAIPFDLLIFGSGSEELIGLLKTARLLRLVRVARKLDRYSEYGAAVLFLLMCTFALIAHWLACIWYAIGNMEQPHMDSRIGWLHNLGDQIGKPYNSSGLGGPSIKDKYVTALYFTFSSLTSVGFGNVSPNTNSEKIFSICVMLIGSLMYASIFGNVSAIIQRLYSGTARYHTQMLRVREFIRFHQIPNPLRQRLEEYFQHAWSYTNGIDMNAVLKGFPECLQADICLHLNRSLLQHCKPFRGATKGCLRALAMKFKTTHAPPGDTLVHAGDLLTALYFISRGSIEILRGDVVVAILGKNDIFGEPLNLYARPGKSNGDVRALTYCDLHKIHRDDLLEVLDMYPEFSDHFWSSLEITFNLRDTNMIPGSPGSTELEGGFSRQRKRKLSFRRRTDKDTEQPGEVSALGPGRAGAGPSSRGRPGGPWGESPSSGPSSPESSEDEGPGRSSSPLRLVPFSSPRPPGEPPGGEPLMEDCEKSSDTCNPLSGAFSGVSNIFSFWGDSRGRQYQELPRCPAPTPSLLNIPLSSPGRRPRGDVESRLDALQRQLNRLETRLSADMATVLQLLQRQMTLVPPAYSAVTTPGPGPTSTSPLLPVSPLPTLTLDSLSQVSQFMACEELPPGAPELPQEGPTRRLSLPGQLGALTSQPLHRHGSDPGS
T1 sequence (O95069 whole entry): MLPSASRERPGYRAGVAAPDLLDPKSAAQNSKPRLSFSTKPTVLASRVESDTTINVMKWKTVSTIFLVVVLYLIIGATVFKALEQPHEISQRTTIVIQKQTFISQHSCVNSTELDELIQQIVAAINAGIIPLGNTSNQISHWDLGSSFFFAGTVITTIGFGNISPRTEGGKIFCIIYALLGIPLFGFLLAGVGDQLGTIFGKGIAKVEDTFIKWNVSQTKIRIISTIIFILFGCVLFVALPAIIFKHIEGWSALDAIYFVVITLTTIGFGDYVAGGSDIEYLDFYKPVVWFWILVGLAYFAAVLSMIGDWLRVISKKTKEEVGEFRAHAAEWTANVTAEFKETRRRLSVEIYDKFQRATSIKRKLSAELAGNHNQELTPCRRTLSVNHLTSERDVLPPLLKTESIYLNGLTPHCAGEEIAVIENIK

Compound | IC50 (human TREK-1 channel [2]) [µM] | TREK-1 blockade at 100 nM compared with spadin (in words) (human TREK-1 channel [3]) | NSF latency to feed, subchronic treatment (C57Bl/6J mice [5]) [s] | FST immobility time, subchronic treatment (C57Bl/6J mice [7]) [s] | FST immobility time, acute treatment (C57Bl/6J mice [7]) [s] | FST immobility time 1 h after injection (action duration) (C57Bl/6J mice [7]) [s] | FST immobility time 16 h after injection (action duration) (C57Bl/6J mice [7]) [s] | other results
CC[C@@H](C)[C@@H](NC(=O)CNC(=O)[C@H](NC(=O)[C@@H](CO)NC(=O)[C@@H](Cc1c[nH]c2ccccc12)NC(=O)CNC(=O)[C@@H](CC(C)C)NC(=O)[C@@H](CCCNC(=N)N)NC(C)=O)C(C)C)C(=O)N1CCC[C@@H]1C(=O)NCC(=O)N[C@H](CO)C(=O)N[C@H](Cc1c[nH]c2ccccc12)C(=O)N[C@H](CCCNC(=N)N)C(=O)N1CCC[C@@H]1C(=O)N[C@H](CC(C)C)C(=O)N1CCC[C@@H]1C(=O)N[C@H](C)C(N)=O [analog 3] (Ac-[dR][dL]G[dW][dS][dV]G[dI][dP]G[dS][dW][dR][dP][dL][dP][dA]-NH2) | 0.0115 ± 0.00059 | increased blockade effect when compared to spadin | 143.88 ± 23.42 | 114.9 ± 9.82 | 135.10 ± 8.11 | 123.4 ± 7.0 | 129.6 ± 12.7 | Effect on kaïnate-triggered seizures, 1 μg/kg (C57Bl/6J mice [1]; 1 μg/kg i.v., n = 10): no protective effect; Effect on kaïnate-triggered seizures, 10 μg/kg (C57Bl/6J mice [1]; 10 μg/kg i.v., n = 10, monitored 2 h): important protective effect; Number of mice reaching the two less severe seizure stages (immobility, head or neck movements) (C57Bl/6J mice [1]; 10 μg/kg i.v., n = 10, saline: at least 9 among 10, five died): two mice among 10; Amount recovered in a half brain (10 nmol i.v. (100 μL of 100 μM, caudal vein), 30 min after injection, acidic extraction, RP18 HPLC, standard curve 50-200 pmol, estimated): ~100 pmol; Yield to cross the blood-brain-barrier (10 nmol i.v., 30 min after injection, amount per brain relative to injected amount): ~2%; Amount recovered per brain (10 nmol i.v., 30 min after injection, extrapolated from a half brain): ~200 pmol; HPLC peak in brain extract 60 min after injection (10 nmol i.v., 60 min after injection): disappeared after 60 min; Tail withdrawal time (C57Bl/6J mice [4]): 11.32 ± 1.04 s; Effect on IKR current (hERG channel (IKR); HEK cells expressing hERG): did not modify currents; IKR tail current density at 0 mV in the presence of the analog (hERG channel (IKR); n = 5, mean ± SEM, control 204.59 ± 34.18 pA/pF): 212.99 ± 38.38 pA/pF; IKR current density at 0 mV, end of first pulse, in the presence of the analog (hERG channel (IKR); n = 5, mean ± SEM, control 225.14 ± 33.09 pA/pF): 224.48 ± 35.94 pA/pF; Locomotor activity versus saline-treated mice (coming-and-going, climbing, total movements) (C57Bl/6J mice [6]): no significant difference; Effect on IKS current (human-IKS current; HEK-IKS cells): did not modify currents; IKS tail current density at 0 mV in the presence of the analog (human-IKS current; n = 5, mean ± SEM, control 8.33 ± 1.78 pA/pF): 8.33 ± 2.06 pA/pF; IKS current density at 0 mV, end of pulse, in the presence of the analog (human-IKS current; n = 5, mean ± SEM, control 17.65 ± 3.84 pA/pF): 17.58 ± 4.03 pA/pF
CC[C@H](C)[C@H](NC(=O)[C@@H]1CCCN1C(=O)CNC(=O)[C@H](CO)NC(=O)[C@H](Cc1c[nH]c2ccccc12)NC(=O)[C@H](CCCNC(=N)N)NC(=O)[C@@H]1CCCN1C(=O)[C@H](CC(C)C)NC(=O)[C@@H]1CCCN1C(=O)[C@H](C)NC(=O)[C@H](C)NC(=O)[C@@H]1CCCN1C(=O)[C@@H]1CCCN1C(=O)[C@@H]1CCCN1C(=O)[C@@H]1CCCN1C(=O)[C@H](C)NC(=O)[C@H](CC(=O)O)NC(=O)[C@H](CC(C)C)NC(=O)[C@H](CCCNC(=N)N)NC(=O)[C@H](CC(=O)O)NC(=O)[C@H](CCC(N)=O)NC(C)=O)C(=O)NCC(=O)N[C@H](C(=O)N[C@@H](CO)C(=O)N[C@@H](Cc1c[nH]c2ccccc12)C(=O)NCC(=O)N[C@@H](CC(C)C)C(=O)N[C@@H](CCCNC(=N)N)C(N)=O)C(C)C [analog 7] |  | bad inhibitor of TREK-1 channels |  |  |  |  |  | 
CC[C@@H](C)[C@@H](NC(=O)CNC(=O)[C@H](NC(=O)[C@@H](CO)NC(=O)[C@@H](Cc1c[nH]c2ccccc12)NC(=O)CNC(=O)[C@@H](CC(C)C)NC(=O)[C@@H](CCCNC(=N)N)NC(C)=O)C(C)C)C(=O)N1CCC[C@@H]1C(=O)NCC(=O)N[C@H](CO)C(=O)N[C@H](Cc1c[nH]c2ccccc12)C(=O)N[C@H](CCCNC(=N)N)C(=O)N1CCC[C@@H]1C(=O)N[C@H](CC(C)C)C(=O)N1CCC[C@@H]1C(=O)N[C@H](C)C(=O)N[C@H](C)C(=O)N1CCC[C@@H]1C(=O)N1CCC[C@@H]1C(=O)N1CCC[C@@H]1C(=O)N1CCC[C@@H]1C(=O)N[C@H](C)C(=O)N[C@H](CC(=O)O)C(=O)N[C@H](CC(C)C)C(=O)N[C@H](CCCNC(=N)N)C(=O)N[C@H](CC(=O)O)C(=O)N[C@H](CCC(N)=O)C(N)=O [analog 8] (Ac-[dR][dL]G[dW][dS][dV]G[dI][dP]G[dS][dW][dR][dP][dL][dP][dA][dA][dP][dP][dP][dP][dA][dD][dL][dR][dD][dQ]-NH2) | 0.00995 ± 0.00085 | increased blockade effect when compared to spadin | 167.00 ± 22.96 | 124.1 ± 10.53 | 83.60 ± 9.01 | 121.7 ± 5.2 | 129.1 ± 12.0 | Tail withdrawal time (C57Bl/6J mice [4]): 13.85 ± 0.72 s
Ac-APLPRWSGPIGVSWGLR-NH2 [analog 2] | 0.06 ± 0.00041 |  |  |  |  |  |  | 
Ac-APPPPAAPLPRWSGPIGVSWGLR-NH2 [analog 9] |  | inhibitory effect close to that of spadin |  |  |  |  |  | 
Ac-QDRLDAPPPPAAPLPRWSGPIGVSWGLRAAAAGGAFPRGGRWRR-NH2 [analog 11] |  | reduced blocking effect on TREK-1 channels |  |  |  |  |  | 
Ac-[dR][dR][dW][dR]GG[dR][dP][dF][dA]GG[dA][dA][dA][dA][dR][dL]G[dW][dS][dV]G[dI][dP]G[dS][dW][dR][dP][dL][dP][dA][dA][dP][dP][dP][dP][dA][dD][dL][dR][dD][dQ]-NH2 [analog 12] |  | did not display a better efficacy |  |  |  |  |  | 
spadin [reference compound] |  |  | 151.11 ± 17.70 | 123.70 ± 7.16 | 107.40 ± 5.05 | 102.4 ± 6.2 | 175.3 ± 7.5 | Increase of the number of BrdU-positive cells in SGZ versus saline (factor) (C57Bl/6J mice [8]): ≥ 2; FST immobility time 3 h after injection (action duration) (C57Bl/6J mice [7]; 3 h after injection (order of values follows order of times), saline 170.3 ± 4.5 s): 113.2 ± 5.0 s; FST immobility time 7 h after injection (action duration) (C57Bl/6J mice [7]; 7 h after injection (order of values follows order of times), saline 170.3 ± 4.5 s): 150.8 ± 6.5 s; Biological half-life time measured by the FST (C57Bl/6J mice [7]; from loss of FST efficacy with time after injection): around 6 h
